“Also recorded” adds a separate entry of the source. Read-outs that look alike come from different tables or passages of the source.
Assays:
EL4 thymoma = EL4 thymoma subcutaneous tumor model in C57BL/6 mice (tumor volume); format: in vivo
Protocol: (§1) EL4 cells, a thymoma cell line, is grown in T75 flasks in RPMI complete medium supplemented with 10% fetal bovine serum, 2 mM L-glutamine, 100 U/ml penicillin, 100 μg/ml streptomycin, 10% nonessential amino acids, 10% HEPES, 10% sodium pyruvate, 50 μM 2-ME, 10 μg/ml gentamycin in a humidified atmosphere of 5% CO2 at 37° C.
C57BL/6 mice (5 per group) of 6 to 8 weeks of age are injected subcutaneously with EL4 […] cells (˜0.5×10^6 cells/mouse). Two groups of mice are intradermally injected with Mycobacterium indicus pranii (˜5×10^8) either 3 or 7 days post-inoculation of tumor cells. Two groups of mice one injected previously with MIP and another uninjected are intraperitoneally injected with 15 mg/Kg body weight of Cyclophosphamide on the next day. Tumor volume is estimated in the three groups of mice on the 11th, 14th and 17th day after tumor inoculation. This has been depicted in FIG. 13. Vehicle alone (0.1 ml of PBS) is used as control and intradermally injected 7 days after administration of cells.

[1] = test system: B-cell malignancies such as Multiple myeloma, Solitary plasmacytoma and Plasma cell leukemia; assay: Mice with B-cell malignancies treated with MIP, Cyclophosphamide or both (Conclusion); format: in vivo; details: MIP ~5×10^8 intradermal and/or Cyclophosphamide 15 mg/Kg i.p. next day; compared with initial tumor size
Protocol: The synergistic combination of Cyclophosphamide and Mycobacterium indicus pranii is administered to mice detected with B-cell malignancies such as Multiple myeloma, Solitary plasmacytoma and Plasma cell leukemia. The experiment is conducted mainly on mice which have been detected with said myelomas. The mice are initially examined and the tumor growth and size approximately determined. The mice are then divided into groups so that 5 mice form a group. One mice group is subjected to only Mycobacterium indicus pranii treatment and another group to only Cyclophosphamide treatment. The third group of mice is subjected to a treatment of Mycobacterium indicus pranii along with Cyclophosphamide. This third group of mice are initially intradermally injected with Mycobacterium indicus pranii at a concentration range of ˜5×10^8 cells. […] The mice are then re-examined and the tumor volume estimated on different days after Mycobacterium indicus pranii administration.

Sp2/0 myeloma = test system: Sp2/0 myeloma
Protocol: BALB/c male mice, aged 6-8 weeks and weighing ˜18-25 g, are procured from the Central Animal Facility, Indian Institute of Science, Bangalore. All mice received care according to institutional guidelines and are maintained under controlled conditions and fed with a standard diet.
as §1, with “Sp2/0” for “EL4”, “myeloma” for “thymoma”, “T175” for “T75”, “IMDM” for “RPMI”
An experimental syngeneic tumor model using the myeloma, Sp2/0 in BALB/c mice is studied. […] Different amounts of cells are washed and injected s.c. to establish the cell numbers that need to be injected to reproducibly display solid tumors within two weeks. Mice are sacrificed once the tumors reach a large size to avoid distress. Tumor volume is monitored on the mentioned days and calculated with the formula, V=a×b^2/2, where a is the longest and b is perpendicular to it, are measured on the surface of the tumor with vernier calipers.
BALB/c mice (5 per group) of 6 to 8 weeks of age are subcutaneously injected with Sp2/0 myeloma cells (˜10×10^6 cells/mouse). Thereafter, mice are intradermally injected with Mycobacterium indicus pranii (˜5×10^8) either 1 day prior to or 3 or 6 days post-inoculation of tumor cells. Tumor volume is estimated on 9th, 12th and 14th day of tumor inoculation. Vehicle alone (0.1 ml of PBS) is used as control and intradermally injected 3 days after administration of cells.
Next, the optimum dose of Mycobacterium indicus pranii required for reducing the tumor size and delaying the appearance of tumors is titrated. BALB/c mice (5 per group) of 6 to 8 weeks of age are subcutaneously injected with Sp2/0 Myeloma cells (˜10×10^6 cells/mouse). Mice are intradermally injected with different doses of Mycobacterium indicus pranii (5×10^3, 5×10^5, 5×10^7 and 5×10^8) 3 days post-inoculation of tumor cells. Tumor volume is estimated on the 9th, 12th and 14th day of tumor inoculation. Vehicle alone (0.1 ml of PBS) is used as control and intradermally injected 3 days after administration of cells.
BALB/c mice are intraperitoneally injected with three different doses of Cyclophosphamide, Indomethacin and RU486 four days after implantation of Sp2/0 cells. The doses of Cyclophosphamide, Indomethacin and RU486 are chosen based on that administered to mice and the standardization of the same in the Sp2/0 tumor model is depicted in FIG. 4. BALB/c mice (5 per group) of 6 to 8 weeks of age are subcutaneously injected with Sp2/0 myeloma cells (˜10×10^6 cells/mouse). The mice are then intraperitoneally injected with different doses of either Cyclophosphamide (5, 15 or 100 mg/Kg body weight/mouse) or Indomethacin (0.1, 1 or 10 mg/Kg body weight/mouse) or RU486 (0.1, 1 or 5 mg/Kg body weight/mouse), 4 days post-inoculation of tumor cells. Tumor volume is estimated on the 9th, 12th and 14th day after tumor inoculation. Vehicle alone (0.5 ml of PBS) is used as control and intradermally injected 4 days after administration of cells.
BALB/c mice (5 per group) of 6 to 8 weeks of age are subcutaneously injected with Sp2/0 myeloma cells (˜10×10^6 cells/mouse). Four groups of mice are intradermally injected with Mycobacterium indicus pranii (˜5×10^8) 3 days post-inoculation of tumor cells. Three groups of Mycobacterium indicus pranii injected mice are intraperitoneally injected with Cyclophosphamide (15 mg/Kg b. wt.), Indomethacin (1 mg/Kg b. wt.) and RU486 (1 mg/Kg b. wt.) on the next day.

Compound | tumor reduction (EL4 thymoma; 15 mg/Kg body weight i.p. day 4 or day 8, alone) | tumor size (EL4 thymoma; 15 mg/Kg body weight i.p. on day 8, alone, vs PBS) | tumor size/volume [1] | tumor progression (Sp2/0 myeloma; 5 mg/Kg body weight i.p. day 4, alone) | tumor volume / tumor progression (Sp2/0 myeloma; 15 mg/Kg b. wt. i.p. day 4, alone) | tumor volume (Sp2/0 myeloma; 15 mg/Kg b. wt. i.p. day 8, alone) | toxicity to mice (Sp2/0 myeloma; 50 mg/Kg b. wt. i.p.) | tumor volume (Sp2/0 myeloma; 50 mg/Kg b. wt. i.p. day 4, alone) | tumor volume (Sp2/0 myeloma; 50 mg/kg i.p. day 8, alone) | effect on the mice (toxicity) (Sp2/0 myeloma; 100 mg/Kg body weight i.p. day 4) | tumor progression (Sp2/0 myeloma; 100 mg/Kg body weight i.p. day 4, alone) | tumor volume (Sp2/0 myeloma; 1, 5 and 15 mg/Kg b. wt. i.p. day 8, alone) | tumor volume (Sp2/0 myeloma; 1 and 5 mg/Kg b. wt. i.p. day 4, alone) | tumor volume (Sp2/0 myeloma; Cyclophosphamide alone on the same day as MIP (day 3), one day prior or one day after) | tumor volume (Sp2/0 myeloma; 0.1, 1 or 10 mg/Kg body weight i.p. day 4, alone, even at the highest dose) | tumor volume (Sp2/0 myeloma; MIP ~5×10^8 intradermal day 3 plus drug i.p. day 4 (Cyclophosphamide 15, Indomethacin 1 or RU486 1 mg/Kg b. wt.))
O=P1(N(CCCl)CCCl)NCCCO1 (stereo not shown) [Cyclophosphamide] | unable to induce any effect on tumor reduction | greater than observed with PBS | failed to elicit a similar tumor size reduction | not able to reduce tumor progression | not able to sufficiently prevent tumor progression; also recorded: showed some reduction in tumor volume | showed some reduction in tumor volume; also recorded: unable to induce any effect on tumor reduction | toxic to mice | effective | significant tumor reduction | reduced body weight and hair loss | able to prevent tumor progression to a considerable extent | did not significantly reduce tumor volume | unable to reduce tumor volume | had no effect on tumor volume |  | 
COc1ccc2c(c1)c(CC(=O)O)c(C)n2C(=O)c1ccc(Cl)cc1 [Indomethacin] |  |  |  |  |  |  |  |  |  |  |  |  |  |  | did not show any significant reduction in tumor volume | seemed to reverse the beneficial effects observed with Mycobacterium indicus pranii

Reference: patent US8367075B2, “Synergistic combination and method thereof” (Indian Institute of Science, priority 2010, dated 2013)
